According to patent US5104891A, “Cycloheptimidazolone compounds as angiotensin II antagonists for control of hypertension” (G. D. Searle & Co., priority 1989, dated 1992):

Experiments:
[1] = target: angiotensin II receptor (rat uterine membranes); experiment: Angiotensin II binding assay (125I-angiotensin II, rat uterine membranes)
Procedure: Other chemicals were obtained from Sigma Chemical Co.
Rat uterine membranes were prepared from fresh tissue. All procedures were carried out at 4° C. Uteri were stripped of fat and homogenized using a Polytron for 25 sec in 20 volumes of ice-cold Dulbecco's phosphate-buffered saline pH 7.5 (Gibso Labs) containing 5 mM EDTA. The homogenate was centrifuged at 1500× g for 20 min., and the supernatant was recentrifuged at 100,000× g for 60 min. The pellet was resuspended in buffer consisting of 2 mM EDTA and 50 mM Tris-HCl, pH 7.5 to a final protein concentration of 4 mg/ml.
The reaction was initiated by the addition of 50 μg of membrane protein and the mixture was incubated at 25° C. for 30 min. The incubation was terminated with ice-cold 50 mM Tris-HCl; pH 7.5 and the mixture was filtered to separate membrane-bound labelled peptide from the free ligand. The incubation tube and filter were washed with ice-cold buffer. Filters were assayed for radioactivity in a Micromedic gamma counter. Nonspecific binding was defined as binding in the presence of 10 μM of unlabelled AII. Specific binding was calculated as total binding minus nonspecific binding. Binding data was analyzed by a nonlinear least-squares curve fitting program.

[2] = target: T1, angiotensin II (AII) contraction of rabbit aortic rings (Oryctolagus cuniculus, UniProt P34976); experiment: In vitro myotropic screening assay for AII antagonists in rabbit aortic rings; assay type: cell-based; details: pA2 determined according to Schild
T1 construct: The thoracic aorta was removed, cleaned of adherent fat and connective tissue and then cut into 3-mm ring segments; from tissue; host or cells: rabbit thoracic aorta rings, endothelium removed
T1 sequence (P34976 1-359): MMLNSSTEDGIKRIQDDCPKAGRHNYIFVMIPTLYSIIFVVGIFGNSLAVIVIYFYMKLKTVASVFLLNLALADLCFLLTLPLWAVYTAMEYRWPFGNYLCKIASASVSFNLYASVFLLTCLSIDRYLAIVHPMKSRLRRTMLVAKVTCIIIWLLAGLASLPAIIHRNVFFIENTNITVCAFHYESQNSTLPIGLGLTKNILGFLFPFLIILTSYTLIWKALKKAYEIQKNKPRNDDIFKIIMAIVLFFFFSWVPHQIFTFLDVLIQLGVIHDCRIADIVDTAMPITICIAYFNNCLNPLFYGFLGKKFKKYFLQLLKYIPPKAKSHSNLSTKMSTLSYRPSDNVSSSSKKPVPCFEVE
Procedure: The compounds of the invention were tested for agonist and antagonist activity in rabbit aortic rings. Male New Zealand white rabbits (2-2.5 kg) were sacrificed using an overdose of pentobarbital and exsanguinated via the carotid arteries. The thoracic aorta was removed, cleaned of adherent fat and connective tissue and then cut into 3-mm ring segments. The endothelium was removed from the rings by gently sliding a rolled-up piece of filter paper into the vessel lumen. The rings were then mounted in a water-jacketed tissue bath, maintained at 37° C., between a moveable and a fixed stainless steel wire, with the moveable end attached to an FT03 Grass transducer coupled to a Model 7D Grass Polygraph for recording isometric force responses. […] The preparations were equilibrated for one hour before approximately one gram of passive tension was placed on the rings. For the agonist assay, the rings were exposed to increasing concentrations of the test compound, at 30 minute intervals, during which time the tissue was washed three times with 20 ml of fresh Krebs solution. For the measurement of antagonistic activity, paired rings from the same rabbits were used; one was exposed to increasing concentrations of AII (at 30 minute intervals), and a second ring was exposed to increasing concentrations of AII in the presence of the test compound which was added five minutes prior to the addition of AII. The concentration response curves for AII in the presence of the antagonist were evaluated in terms of the percent of the maximal contraction of the control ring exposed only to AII. pD2 values for AII were calculated from the AII concentration response curves while pA2s were determined according to Schild.

angiotensin II = details: literature; cited from earlier work
AII pressor response [3] = experiment: In vivo AII pressor assay, intraduodenal administration; set-up: species or system rat (male Sprague Dawley); details: rat, @ 100 mg
Procedure: (§1) Male Sprague Dawley rats weighing […] were anesthetized with Inactin (100 mg/kg), a catheter was inserted into the trachea and the carotid artery and the jugular vein were cannulated. Arterial pressure was measured from the carotid artery cannula and continuously recorded (Gould, Cleveland, OH). The jugular vein cannula was used for injections of angiotensin II (AII), mecamylamine, atropine and the test compound. The animal was allowed to equilibrate for 30 minutes. Mecamylamine (3 mg/kg, 0.3 mg/kg) and atropine (400 μg/kg, 0.3 ml/kg) were then given iv to produce ganglion blockage. These compounds were administered every 90 minutes throughout the screening procedure. Angiotensin II was given in bolus doses ([…] in saline with 0.5% bovine serum albumin, 0.1 ml/kg) every 10 minutes consecutively three times or until the increase in arterial pressure produced was within 3 mm Hg for two consecutive injections. […] AII injections were then given 1, 5, 10, 20, 30, 45, 60, 75, 90, and 120 minutes after administration of the test compound and the response of arterial pressure monitored. […]
Compounds were tested for absorption from the gastrointestinal tract following intraduodenal administration. […] The response to AII was tested at the same time points following administration of the test compound except that the 1 minute reading was eliminated. […]

AII pressor response [4] = experiment: In vivo pressor screening assay for AII antagonists, intravenous administration; set-up: species or system rat (male Sprague Dawley); details: rat
Procedure: as §1, with “injections. The last two AII injections are averaged and are referred to as the control response to AII.” for “injections.”

angiotensin II receptors = details: background; cited from earlier work
[5] = IC50, 125I-AII, rat uterine membranes, 25° C., 30 min

Compound | IC50 [1, 5] [nM] | IC50 ([1]; meaning not explained) [nM] | Kb [2] [nM] | also measured
4'-[[5(7)-benzyl-7(5)hydrido-2-butyl-6(1H)-cycloheptimidazolon-1-yl]methyl]-[1,1'-biphenyl]-2-carboxylic acid [Example 14] | 2300 | 108 | – | pA2 [2]: 6.1
CCCCc1nc(Cl)c(CC(=O)O)n1Cc1ccccc1[N+](=O)[O-] [2-butyl-4-chloro-1-(2-nitrobenzyl)imiadzole-5-acetic acid] | – | – | – | angiotensin II antagonist activity (angiotensin II): specific competitive angiotensin II antagonist activity
CCCCc1nc(Cl)c(CC(=O)O)n1Cc1ccccc1Cl [2-n-butyl-4-chloro-1-(2-chlorobenzyl) imidozole-s-acetic acid] | – | – | – | angiotensin II antagonist activity (angiotensin II): specific competitive angiotensin II antagonist activity
CCCCc1nc2cc(C)c(=O)c(C)cc2n1Cc1ccc(-c2ccccc2C(=O)O)cc1 [Example 1, 4'-[[5,7-dimethyl-2-butyl-6(1H)-cycloheptimidazolon-1-yl]methyl]-[1,1'-biphenyl]-2-carboxylic acid] | 800 | 250 | 1000 | Antagonism of the AII pressor response, maximal inhibition, ID (AII pressor response [3]): 72%; Antagonism of the AII pressor response, maximal inhibition, I.V. (AII pressor response [4]; @ 30 mg): 72%
CCCCc1nc2cc(C(=O)O)c(=O)c(C(=O)O)cc2n1Cc1ccc(-c2ccccc2C(=O)O)cc1 [Example 2, 4'-[[5,7-dicarboxy-2-butyl-6(1H)-cycloheptimidazolon-1-yl]methyl]-[1,1'-biphenyl]-2-carboxylic acid] | 500 | 140 | 251 | Antagonism of the AII pressor response, maximal inhibition, I.V. (AII pressor response [4]; @ 10 mg): 100%
CCCCc1nc2ccc(=O)ccc2n1Cc1ccc(-c2ccccc2C(=O)O)cc1 [Example 3, 4'-[[2-butyl-6(1H)-cycloheptimidazolon-1-yl]methyl]-[1,1'-biphenyl]-2-carboxylic acid] | 1400 | 24 | 1260 | –
CCCc1nc2cc(C(=O)O)c(=O)c(C(=O)O)cc2n1Cc1ccc(-c2ccccc2C(=O)O)cc1 [Example 4, 4'-[[5,7-dicarboxy-2-propyl-6(1H)-cycloheptimidazolon-1-yl]methyl]-[1,1'-biphenyl]-2-carboxylic acid] | 2300 | 550 | 1000 | –
CCCc1nc2ccc(=O)ccc2n1Cc1ccc(-c2ccccc2C(=O)O)cc1 [Example 5, 4'-[[2-propyl-6(1H)-cycloheptimidazolon-1-yl]methyl]-[1,1'-biphenyl]-2-carboxylic acid] | 1400 | 349 | 1260 | –
CCCCCc1nc2cc(C)c(=O)c(C)cc2n1Cc1ccc(-c2ccccc2C(=O)O)cc1 [Example 6, 4'-[[5,7-dimethyl-2-pentyl-6(1H)-cycloheptimidazolon-1-yl]methyl]-[1,1'-biphenyl]-2-carboxylic acid] | 2500 | 230 | 7940 | –
CCCCc1nc2cc(-c3ccccc3)c(=O)c(-c3ccccc3)cc2n1Cc1ccc(-c2ccccc2C(=O)O)cc1 [Example 7, 4'-[[5,7-diphenyl-2-butyl-6(1H)-cycloheptimidazolon-1-yl]methyl]-[1,1'-biphenyl]-2-carboxylic acid] | 800 | 117 | 316 | –
CCCCc1nc2cc(C(C)C)c(=O)c(-c3ccccc3)cc2n1Cc1ccc(-c2ccccc2C(=O)O)cc1 [Example 10, 4'-[[5(7)-isopropyl-7(5)phenyl-2-butyl-6(1H)-cycloheptimidazolon-1-yl]methyl]-[1,1'-biphenyl]-2-carboxylic acid] | 2000 | 161 | – | pA2 [2]: 5.6
CCCCc1nc2cc(O)c(=O)c(Cl)cc2n1Cc1ccc(-c2ccccc2C(=O)O)cc1 [Example 11, 4'-[[5(7)-hydroxy-7(5)chloro-2-butyl-6(1H)-cycloheptimidazolon-1-yl]methyl]-[1,1'-biphenyl]-2-carboxylic acid] | 7100 | – | – | pA2 [2]: 6.4
CCCCc1nc2cc(C(=O)O)c(=O)c(COC)cc2n1Cc1ccc(-c2ccccc2C(=O)O)cc1 [Example 12, 4'-[[5(7)-carboxy-7(5)methoxymethyl-2-butyl-6(1H)-cycloheptimidazolon-1-yl]methyl]-[1,1'-biphenyl]-2-carboxylic acid] | 4000 | 390 | – | pA2 [2]: 6.8
CCCc1nc2ccc(=O)c(Cc3ccccc3)cc2n1Cc1ccc(-c2ccccc2C(=O)O)cc1 [Example 13, 4'-[[5(7)-hydrido-7(5)benzyl-2-propyl-6(1H)-cycloheptimidazolon-1-yl]methyl]-[1,1'-biphenyl]-2-carboxylic acid] | 1900 | 38 | – | pA2 [2]: 5.5
CCCCCc1nc2cc(C)c(=O)c(C)cc2n1Cc1ccc(-c2ccccc2-c2nn[nH]n2)cc1 [Example 20, 1-{2'-[(tetrazol-5-yl)-biphenyl-4-yl]methyl}-2-pentyl-5,7-dimethyl-cycloheptimidazolone] | 710 | 324 | – | –
CNCC(=O)N[C@@H](CCCN=C(N)N)C(=O)N[C@H](C(=O)N[C@@H](Cc1ccc(O)cc1)C(=O)N[C@H](C(=O)N[C@@H](Cc1cnc[nH]1)C(=O)N1CCC[C@H]1C(=O)N[C@@H](C)C(=O)O)C(C)C)C(C)C [Saralasin] | – | – | – | residual agonist activity (angiotensin II receptors): significant residual agonist activity
angiotensin II: octapeptide, the primary active species of the renin-angiotensin system (DRVYIHPF; Angiotensin-2; UniProt P01019 25-32, looked up) | – | – | – | vasoconstrictor potency (angiotensin II receptors): very potent vasoconstrictor agent
angiotensin III: heptapeptide {[des Asp^1 ]angiotensin II} | – | – | – | vasoconstrictor potency (angiotensin II receptors): less potent as a vasoconstrictor than angiotensin II
